Among the data in EP0003269A1, “Pentacyclic derivatives, process for their preparation and pharmaceutical compositions containing them” (SCIENCE UNION ET Cie SOCIETE FRANCAISE DE RECHERCHE MEDICALE, priority 1977, dated 1979) are solubilité values, retold here.

The data set is described as follows: solubility in solvents. The class given is physicochemical.

In the case of “hydrazide de l'acide 10-methoxy raubasinique”, the solubilité entry (dichlorhydrate, in organic solvents) was “très soluble”.

`C[C@@H]1OC=C(C(=O)NN)[C@H]2C[C@H]3c4[nH]c5ccccc5c4CCN3C[C@H]12` [hydrazide de l'acide Raubasinique, Hydrazide de l'acide Raubasinique]: the solubilité entry (in a mixture pyridine-eau) is recorded as “soluble”, the solubilité result (in méthanol) is listed as “très soluble”, the solubilité result (in n- butanol) is listed as “très soluble” and the solubilité result (in the other solvents) is recorded as “peu soluble”.
